According to ChEMBL document CHEMBL1201862, “PubChem BioAssay data set” (2004):
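Values below derive from 48-hour exposures of cells grown in 96-well plates, with endpoints linearly interpolated between the two concentrations bracketing the appropriate inhibition level. GI50 is the concentration that inhibits growth by half.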 Calls of active or inactive are those of the source. Rule as the data show it: active = GI50 up to about 1.1 µM and inactive = higher.

Tests used:
Assay in all cases: inhibition of tumour cell growth, NCI panel, 48 h
[1] = system: ACHN
[2] = system: HCC 2998
[3] = system: HOP-18
[4] = system: HOP-92
[5] = system: KM12
[6] = system: MOLT-4
[7] = system: OVCAR-4
[8] = system: RPMI-8226
[9] = system: SK-MEL-2
[10] = system: SK-MEL-5
[11] = system: SNB-75
[12] = system: SW-620
[13] = system: U-251
[14] = system: UACC-257
[15] = system: UO-31
[16] = system: CAKI-1
[17] = system: SNB-19
[18] = system: BT-549
[19] = system: DU-145
[20] = system: MCF7

| SMILES | GI50 [1] | GI50 [2] | GI50 [3] | GI50 [4] | GI50 [5] | GI50 [6] | GI50 [7] | GI50 [8] | GI50 [9] | GI50 [10] | GI50 [11] | GI50 [12] | GI50 [13] | GI50 [14] | GI50 [15] | GI50 [16] | GI50 [17] | GI50 [18] | GI50 [19] | GI50 [20] |
| --- | --- | --- | --- | --- | --- | --- | --- | --- | --- | --- | --- | --- | --- | --- | --- | --- | --- | --- | --- | --- |
| CCOC(=O)C(=C=Cc1cccs1)C(=O)c1ccccc1 | 18.8 µM (inactive) | 17.4 µM (inactive) | 17.5 µM (inactive) | 5.15 µM (inactive) | 12.3 µM (inactive) | 19.2 µM (inactive) | 17 µM (inactive) | 18.3 µM (inactive) | 19 µM (inactive) | 3.38 µM (inactive) | 15.8 µM (inactive) | 18 µM (inactive) | 16.9 µM (inactive) | 12.9 µM (inactive) | 14.3 µM (inactive) | – | – | – | – | – |
| COc1ccc(Nc2nc3c(N)cc(C(F)(F)F)cc3nc2-c2ccccc2)cc1 | > 100 µM (inactive) | > 100 µM (inactive) | 36.7 µM (inactive) | 37.6 µM (inactive) | 83 µM (inactive) | > 100 µM (inactive) | 37.2 µM (inactive) | – | 89.5 µM (inactive) | 57.1 µM (inactive) | 28.8 µM (inactive) | > 100 µM (inactive) | 83.2 µM (inactive) | > 100 µM (inactive) | > 100 µM (inactive) | > 100 µM (inactive) | 71.6 µM (inactive) | – | – | – |
| c1ccc(CSc2nc(N3CCOCC3)c3cn[nH]c3n2)cc1 | 17.2 µM (inactive) | 23.6 µM (inactive) | – | 0.237 µM (active) | 13.3 µM (inactive) | 22.2 µM (inactive) | 40.7 µM (inactive) | 7.85 µM (inactive) | 16.6 µM (inactive) | 15.8 µM (inactive) | 30.4 µM (inactive) | 25.9 µM (inactive) | 20.5 µM (inactive) | 15 µM (inactive) | 11.6 µM (inactive) | 9.18 µM (inactive) | 24.7 µM (inactive) | 11.7 µM (inactive) | 26.2 µM (inactive) | 23.1 µM (inactive) |
| CCOC(=O)c1nc2cc(F)c(N3CCOCC3)cc2[nH]c1=O | > 100 µM (inactive) | > 100 µM (inactive) | – | > 100 µM (inactive) | > 100 µM (inactive) | > 100 µM (inactive) | > 100 µM (inactive) | > 100 µM (inactive) | > 100 µM (inactive) | > 100 µM (inactive) | > 100 µM (inactive) | > 100 µM (inactive) | 99.1 µM (inactive) | > 100 µM (inactive) | 65.3 µM (inactive) | > 100 µM (inactive) | > 100 µM (inactive) | > 100 µM (inactive) | > 100 µM (inactive) | > 100 µM (inactive) |
| CCc1cccc(CC)c1NC(=O)C1=C(C)NC(C)=C(C(=O)Nc2c(CC)cccc2CC)C1c1ccc2c(c1)OCO2 | 19.4 µM (inactive) | 21.6 µM (inactive) | 20.6 µM (inactive) | 14 µM (inactive) | 20.4 µM (inactive) | 56.8 µM (inactive) | 16.6 µM (inactive) | 22.5 µM (inactive) | 18.6 µM (inactive) | 18.1 µM (inactive) | 18.8 µM (inactive) | 17 µM (inactive) | 14 µM (inactive) | 17.9 µM (inactive) | 17.1 µM (inactive) | 20.1 µM (inactive) | 17.4 µM (inactive) | – | – | – |
| C=C1C2=C(CCCC2)C(=O)OC12CCCCC2 | 40.9 µM (inactive) | > 100 µM (inactive) | > 100 µM (inactive) | 19.5 µM (inactive) | 85.5 µM (inactive) | 38.5 µM (inactive) | 98.2 µM (inactive) | 35.5 µM (inactive) | 70.3 µM (inactive) | 38 µM (inactive) | 23.8 µM (inactive) | > 100 µM (inactive) | 73.6 µM (inactive) | 52.1 µM (inactive) | 35.1 µM (inactive) | – | > 100 µM (inactive) | – | – | – |
| CC(C)(C)NNC(=O)/C(=C/c1ccc([N+](=O)[O-])cc1)NC(=O)c1ccccc1 | > 100 µM (inactive) | > 100 µM (inactive) | > 100 µM (inactive) | > 100 µM (inactive) | > 100 µM (inactive) | 41.3 µM (inactive) | 75 µM (inactive) | 45 µM (inactive) | > 100 µM (inactive) | > 100 µM (inactive) | > 100 µM (inactive) | – | 39 µM (inactive) | > 100 µM (inactive) | > 100 µM (inactive) | > 100 µM (inactive) | > 100 µM (inactive) | – | – | – |
| O=C(OCCO)C1CC2CC1C1(C2)OCCO1 (centres undefined) | > 100 µM (inactive) | – | > 100 µM (inactive) | > 100 µM (inactive) | > 100 µM (inactive) | > 100 µM (inactive) | > 100 µM (inactive) | > 100 µM (inactive) | > 100 µM (inactive) | > 100 µM (inactive) | > 100 µM (inactive) | > 100 µM (inactive) | > 100 µM (inactive) | > 100 µM (inactive) | > 100 µM (inactive) | > 100 µM (inactive) | > 100 µM (inactive) | – | – | – |
